System: MMP-1 (matrix metalloproteinase-1)
Test: MMP-1 inhibition activity: ELISA of MMP-1 produced by aged human dermal fibroblasts
Assay type: cell-based
Settings: EGCG + GCG total 3 μg/ml at the given weight ratio
Protocol: The evaluation on MMP-1 inhibition activity was conducted in order to verify the effects of the green tea extracts of Samples 1 and 2 of Example 1 in inhibiting the production of MMP-1, which is skin tissue breakdown enzyme, in human skin fibroblast of aged human skin and in inhibiting the production of MMP-1 according to the weight ratio of EGCG and GCG, and the amount of GCG. To be specific, the evaluation was conducted through the following steps.
Normal human dermal fibroblast (NHDF; Lonza, Switzerland) was cultured in a DMEM medium (Dulbecco's modified Eagle's Medium, Gibco 1210-0038) comprising 10% of fetal bovine serum, and the culturing was all performed in a 37° C., 5% CO2 culture medium. Cells that had 6-9 sub-culture frequencies were used as young cells, and aged dermal fibroblasts were obtained by sub-culturing 37 times in such a manner that the number of cells was calculated for every sub-culture and then ⅕ of the total number of cells were newly cultured. The aged dermal fibroblasts were treated with EGCG and GCG depending on the ratio of EGCG:GCG and the concentration of GCG, or treated with Sample 1 or Sample 2.
In order to verify the amount of MMP-1 produced, the enzyme-linked immunosorbent assay (ELISA) method was used (Amersham, USA). The culture medium of the cells treated with the samples at the step 1-1 was collected and the supernatant was isolated by centrifuging at 1000×g, and then the culture medium was put into a 96-well plate coated with an MMP-1 antibody, and then a secondary antibody (horse reddish peroxidase, HRP) was reacted at room temperature for 1 hour, and washed with 100 μL PBS. The amount of MMP-1 produced was confirmed by measuring absorbance at a 490 nm wavelength after reaction and confirming its degree of color formation using a TMB substrate solution (Pierce, USA), and the MMP-1 inhibition activity (%) was calculated using the following equation.
MMP-1 inhibition activity (%)=(O.D. of the group treated with the sample at 490 nm/O.D. of the group not treated with sample at 490 nm)×100

Row | Molecule | MMP-1 inhibition activity (%) Processed after 24 hours [%] | MMP-1 inhibition activity (%) Processed immediately [%]
1 | O=C(O[C@@H]1Cc2c(O)cc(O)cc2O[C@H]1c1cc(O)c(O)c(O)c1)c1cc(O)c(O)c(O)c1 [GCG, (−)-gallocatechin gallate] | 10 ± 1.0 | 55 ± 9.2
2 | (−)-epigallocatechin gallate [EGCG] | 6 ± 1.0 | 56 ± 9.7
